Consider 7 compounds from patent US20240360135A1, “IMIDAZO[1,2-B]PYRIDAZINYL COMPOUNDS AND USES THEREOF” (Sumitomo Pharma Oncology, Inc., priority 2021, published 2024).

The target in one test is T1, PIM3 (Homo sapiens, UniProt Q86V86).
T1 construct: purchased Millipore 14-738
In words: RBC HotSpot kinase inhibition assay, PIM3. The format is biochemical. The protocol: (§1) Reagents. Base Reaction Buffer: 20 mM Hepes (pH 7.5), 10 mM MgCl2, 1 mM EGTA, 0.01% Brij35, 0.02 mg/ml BSA, 0.1 mM Na3VO4, 2 mM DTT, 1% DMSO. The following kinases were used in the assay at the indicated concentrations:
(§2) The following substrates were used in combination with the indicated kinases in the assay at the indicated concentration:
(§3) No cofactors were added to any of the reactions.
(§4) • 1. Prepared substrate in freshly prepared Reaction Buffer. • 2. Delivered kinase into the substrate solution and gently mixed. • 3. Delivered test compound in 100% DMSO into the kinase reaction mixture by Acoustic technology (Echo550; nanoliter range), incubated for 20 minutes at room temperature. • 4. Delivered ^33P-ATP into the reaction mixture to initiate the reaction. • 5. Incubated for 2 hours at room temperature. • 6. Detected kinase activity by P81 filter-binding method.
(§5) The results of the RBC HotSpot™ kinase assay are set forth in Table 1, wherein “A” indicates an IC50<10 nM, “B” indicates an IC50 wherein 10 nM≤IC50≤100 nM, and “C” indicates an IC50>100 nM.

The target in another test is T2, PIM2 (Homo sapiens, UniProt Q9P1W9).
T2 construct: purchased Invitrogen PR6347B
The experiment in a line: RBC HotSpot kinase inhibition assay, PIM2. It is filed as biochemical. Here is the method:
as §1, §2, §3, §4, §5

The target in another test is T3, PIM1 (Homo sapiens, UniProt P11309).
T3 construct: purchased Invitrogen PV3503
In words: RBC HotSpot kinase inhibition assay, PIM1. The format is biochemical. The protocol: as §1, §2, §3, §4, §5

The subject of the next test is A549 cells. In words: Wound healing assay in A549 cells with TGF-β. As to conditions: Homo sapiens; wound healing, A549, 5 ng/ml TGF-β, 24 h; read-out: IC50 (μM) 24 h. The format is cell-based. The text has this: Overview. Epithelial to mesenchymal transition (EMT) is used to describe epithelial cells losing their cell to cell adhesion and polarity while gaining migratory and invasive properties. The process of EMT is required for normal embryonic development and wound healing, but has also been implicated in fibrosis. In humans, TGF-β signaling is the main driver of EMT, and inhibiting this pathway may be beneficial in various diseases such as fibrosis. A wound healing assay was used to study cell migration and cell-cell interaction, and probe the EMT properties of lung epithelial cells (A549) in presence of Compound 2 or Compound 4.
Procedure. A549 cells (ATCC, CCL-185) were seeded into the ImageLock plate (Essen Bioscience) at 2×10^4 cells/well in 100 μL of complete growth media. Cells were incubated overnight at 37° C., 5% CO2. The next day, cells were washed with 1×PBS and Compound 2, Compound 4, DMSO control (±TGF-β) or galunisertib (TGF-β inhibitor used as positive control) was added to the cells in a serum-free F12K media (0.2% DMSO final, 10 μM starting concentration, 3-fold dilution, 8-doses) in presence of 5 ng/ml TGF-β. Cells were incubated for 48 hours (until they reached confluency) at 37° C., 5% CO2. Wounds were simultaneously created using a WoundMaker™ (Essen Bioscience). Debris and non-attached cells were removed by gently washing once with F12K.
Test compound or control compound and TGF-β were added to the cells in F12K+10% FBS as previously described. The ImageLock plate was put into IncuCyteS3 instrument installed inside a 5% CO2 incubator. The plate was allowed to equilibrate in the IncuCyteS3 instrument for 15 minutes prior to scheduling the first scan and data recording. The plate was incubated for 72 hours at 37° C., and wound closure was recorded in real time with the IncuCyte S3 imaging system. Percentage of relative wound density was quantitatively calculated by the IncuCyte software.

The subject of a further test is mouse psoriasis models. The note with it: cited from earlier work.

pIC50: −log10 of the molar value.

T2 sequence (Q9P1W9 whole entry): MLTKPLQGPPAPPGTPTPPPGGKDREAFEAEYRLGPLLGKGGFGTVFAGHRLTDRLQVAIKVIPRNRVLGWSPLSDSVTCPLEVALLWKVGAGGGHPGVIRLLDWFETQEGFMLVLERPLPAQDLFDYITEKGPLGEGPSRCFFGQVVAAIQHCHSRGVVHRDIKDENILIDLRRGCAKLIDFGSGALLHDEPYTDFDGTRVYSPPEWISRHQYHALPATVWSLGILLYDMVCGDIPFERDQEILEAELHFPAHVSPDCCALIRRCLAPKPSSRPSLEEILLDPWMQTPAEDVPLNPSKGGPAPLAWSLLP
T3 sequence (P11309 whole entry): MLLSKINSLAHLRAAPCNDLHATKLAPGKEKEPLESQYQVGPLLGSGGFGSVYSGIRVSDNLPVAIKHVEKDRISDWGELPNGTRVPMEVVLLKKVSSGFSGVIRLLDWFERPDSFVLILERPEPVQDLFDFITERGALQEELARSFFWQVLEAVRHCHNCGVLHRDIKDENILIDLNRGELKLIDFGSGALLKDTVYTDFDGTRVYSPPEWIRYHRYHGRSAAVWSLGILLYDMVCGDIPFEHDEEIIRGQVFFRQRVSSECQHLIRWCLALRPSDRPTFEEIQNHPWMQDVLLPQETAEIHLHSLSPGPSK

Take `CCc1cc(-c2cnc3ccc(NC45CCC(O)(CC4)C5)nn23)n[nH]1` [Compound 7, 4-((3-(5-ethyl-1H-pyrazol-3-yl)imidazo[1,2-b]pyridazin-6-yl)amino)bicyclo[2.2.1]heptan-1-ol]: the negative logarithm of the IC50 (pIC50) (usually the IC50 on a negative log10 scale, so that one unit is a factor of ten) on PIM3 is 7.00 to 8.00; on PIM2 it was under 7.00; at PIM1 it was 7.00 to 8.00.

Take `CCc1cc(-c2cnc3ccc(NC45CCC(O)(CC4)C5)nn23)c[nH]1` [Compound 3, 4-((3-(5-ethyl-1H-pyrrol-3-yl)imidazo[1,2-b]pyridazin-6-yl)amino)bicyclo[2.2.1]heptan-1-ol]: the values for the pIC50 on PIM3, at PIM2 and on PIM1 were 7.00 to 8.00, under 7.00 and 7.00 to 8.00, respectively.

`Cc1cccc(-c2nn3c(c2-c2ccnc4ccc(C(N)=O)cc24)CCC3)n1` [Galunisertib, galunisertib, reference compound]: in the test with A549 cells, the IC50 (usually the concentration at which inhibition is half-maximal) is over 10 µM.

With `Cc1cc(-c2cnc3ccc(NC45CCC(O)(CC4)C5)nn23)n[nH]1` [Compound 1, 4-((3-(5-methyl-1H-pyrazol-3-yl)imidazo[1,2-b]pyridazin-6-yl)amino)bicyclo[2.2.1]heptan-1-ol], the pIC50 at PIM3, at PIM2 and at PIM1 was under 7.00 each time.

`CCc1cc(-c2cnc3ccc(NC45CCC(C(C)(C)O)(CC4)CC5)nn23)n[nH]1` [Compound 6, 2-(4-((3-(5-ethyl-1H-pyrazol-3-yl)imidazo[1,2-b]pyridazin-6-yl)amino)bicyclo[2.2.2]octan-1-yl)propan-2-ol]: the negative logarithm of the IC50 (pIC50) on PIM3 is over 8.00; on PIM2, under 7.00; on PIM1, over 8.00.

Consider `OC12CCC(Nc3ccc4ncc(-c5cc(C6CC6)[nH]n5)n4n3)(CC1)C2` [Compound 5, 4-((3-(5-cyclopropyl-1H-pyrazol-3-yl)imidazo[1,2-b]pyridazin-6-yl)amino)bicyclo[2.2.1]heptan-1-ol], for which the pIC50 on PIM3 is 7.00 to 8.00; on PIM2 it was under 7.00; at PIM1, 7.00 to 8.00.

For the compound `CN1CCC(CNc2ccc3ncc(-c4cccc(OC(F)(F)F)c4)n3n2)CC1` [SGI-1776], in the test on mouse psoriasis models, the epidermal thickening result is “partial reduction” and the vascularization entry was “partial reduction”.
